Here are results for one substance from publication PMC11357992, “Non-invasive mapping of systemic neutrophil dynamics upon cardiovascular injury” (Nature Cardiovascular Research, 2023).

One test relates to murine neutrophils. Kind of test: 19F MRI of isolated murine neutrophils incubated with mNPPFCs/ConPFCs. The class given is cell-based, mouse. To be noted: 4 × 10^6 bone marrow neutrophils incubated 3 h at 37 °C with 50 µl PFCs; individual experiments. How it is done:
A total of 4 × 10^6 neutrophils isolated from bone marrow with the EasySep Mouse Neutrophil Enrichment Kit (Stemcell Technologies) were resuspended in 1 ml DMEM and incubated for 3 h with 50 µl ^mNPPFCs or ^ConPFCs at 37 °C. Afterward, cells were washed three times with PBS, fixed with PFA, pelleted by centrifugation and analyzed by ^1H/^19F MRI.
Extended Data Fig. 2 Specific targeting of neutrophils by ^mNPPFCs. a, Flow cytometric analysis of murine blood leukocytes incubated with ^mNPPFCs over 80 min illustrating their predominant uptake by neutrophils (red) as compared to monocytes (blue) and lymphocytes (gray). b, To further validate specificity, binding of CD177 mAb as well as incorporation of ^mNPPFCs under basal and LPS-stimulated conditions were determined. Almost no binding/uptake into classical or non-classical monocytes as well as macrophages or eosinophils could be detected. […] Subsequently, cells were analyzed by ^1H/^19F MRI. Left: ^1H/^19F MRI of centrifugation tubes with neutrophils treated with ^mNPPFCs (lower panel) or ^ConPFCs (upper panel). […] Quantification of ^19F signals (4th column) clearly indicate substantial stronger ^19F uptake in ^mNPPFC-treated neutrophils (red) compared to cells incubated with ^ConPFCs (gray); a.u. = arbitrary units. […]

The next test concerns bone marrow neutrophils. Nature of the test: In vivo mNPPFC labeling of bone marrow neutrophils after Matrigel-LPS, 1H/19F MRI. More on the design: species or system mouse. To be noted: individual experiments; for total amount of 19F in the bone marrow (1H/19F MRI): mNPPFCs 1 mmol per kg BW i.v. 24 h after implantation, MRI another 24 h later; for 19F signal normalized to the number of neutrophils in the bone marrow: neutrophil number by flow cytometry directly after MRI. As to the method:
To induce defined inflammatory foci, we adopted a recently developed model of localized subcutaneous inflammation. To this end, ice-cold Matrigel (Corning) was doped with LPS (1 µg µl^−1; Salmonella typhimurium, Sigma-Aldrich) and subcutaneously (s.c.) implanted into the neck of the mice. Twenty-four hours after implanting the plug, neutrophils were isolated from the blood and incubated ex vivo with ^mNPPFCs or ^ConPFCs. In separate experiments, 24 h after implantation, ^mNPPFCs or ^ConPFCs were injected intravenously, and immune cells were isolated from the blood. In further experiments, 1 d after plug injection, mice received 1 mmol per kg BW ^mNPPFCs, and, 24 h later, the bone marrow was analyzed by ^1H/^19F MRI. Thereafter, mice were killed, and neutrophils were isolated from the bone marrow for determination of cell numbers. In each case, immune cells were analyzed by flow cytometry.
Slice packages were placed in sagittal orientation to cover the complete bone marrow in the tibia and femur in both legs using the following scan details: ^1H RARE, TR = 2,000 ms, FOV = 4.00 × 2.56 cm^2, matrix = 256 × 256, ST = 1 mm, tAcq = 1 min; ^19F RARE, TR = 2,500 ms, FOV = 4.00 × 2.56 cm^2, matrix = 64 × 64, ST = 3 mm, tAcq = 10 min.
(In general: A flow cytometer gives signals particle by particle.)

For the next test, the system named is infarcted heart. Nature of the test: Cardiac 19F MRI signal after MI (in vivo, time course, correlation with LGE). More on the design: species or system mouse. As to the method:
For labeling of neutrophils before MI, mice were anesthetized (1.5% isoflurane) and 1 mmol per kg BW PFCs were injected intravenously via the tail vein on 3 consecutive days. Induction of MI was essentially carried out as previously described. For inhibiting the egress of neutrophils from the bone marrow in a subset of experiments, a cocktail of neutralizing antibodies was injected i.p. 1 h before and 4 h after MI (CXCL1, CXCL2, G-CSF, GM-CSF, 50 µg each, Thermo Fisher). To generate neutropenic mice, 48 and 24 h before MI, 500 µg of the Ly6G-depletion antibody (BioXcell, clone 1A8) was injected i.p. in independent experiments.
All experiments were performed with a vertical 9.4 T Bruker AVANCE^III Wide Bore NMR spectrometer (Bruker) driven by ParaVision 5.1 and operating at frequencies of 400.21 MHz for ^1H measurements and 376.54 MHz for ^19F measurements using a Bruker microimaging unit, Micro2.5, with actively shielded gradient sets (1.5 T m^−1). Data were acquired using a 25-mm quadrature ^19F resonator with one channel tunable to both ^1H and ^19F. Mice were anesthetized with 1.5% isoflurane and kept at 37 °C. After acquisition of morphological ^1H images, the resonator was tuned to ^19F, and anatomically matching ^19F images were recorded essentially as described previously.
Images of mouse hearts were acquired in short-axis orientation using a retrospectively triggered fast low-angle shot cine sequence (IntragateFLASH, Bruker) as described previously. Thereafter, hearts were excised, washed and fixed with PFA for 3D high-resolution post-mortem MRI: ^1H FISP, TR = 4 ms, FOV = 1.00 × 1.00 × 1.00 cm³, matrix = 128 × 64 × 128, tAcq 151 min; ^19F RARE, TR = 2,500 ms, FOV = 1.00 × 1.00 × 1.00 cm³, matrix = 32 × 32 × 32, tAcq = 10 h.

Values joined by “and” are separate entries in the source; they are usually repeats but may differ in a detail not shown here. Equal entries are not always repeated. Where no end group is shown, it is not given here. Side-chain parts run from the residue outwards. rhodamine‑labelled PEGylated perfluoro‑15‑crown‑5 ether nanoemulsion = not defined here; carboxyfluorescein = N-terminal fluorescence label (CF)

Turning to “mNPPFCs: PEGylated rhodamine-labeled perfluoro-15-crown-5 ether nanoemulsion (maleimide PFCs) coupled with murine neutrophil-specific peptide mNP (carboxyfluorescein-DFYKPMPNLRITGGGC([maleimide‑PEG2000‑DSPE-rhodamine‑labelled PEGylated perfluoro‑15‑crown‑5 ether nanoemulsion]); reading uncertain; also: printed as DFYKPMPNLRIT-GGG-C)”, in the test on murine neutrophils, the “19F signal of neutrophil cell pellet (19F MRI)” value is 349357 a.u. and 181876 a.u. and 297311 a.u. and 383564 a.u. and 306579 a.u. Moreover, in the test with bone marrow neutrophils (Ctrl: Matrigel-PBS plug), the “total amount of 19F in the bone marrow (1H/19F MRI)” value was 505497 and 895713 and 688103 and 1.24E+06 and 1.03E+06; the “19F signal normalized to the number of neutrophils in the bone marrow” value was 5335.62 and 16297.54 and 4781.15 and 12000.14 and 6924.34. Besides, in the test on bone marrow neutrophils (LPS: Matrigel-LPS plug), the “total amount of 19F in the bone marrow (1H/19F MRI)” value was 1632050.00 and 894870.00 and 1335810.00 and 1304290.00 and 940933.00; the “19F signal normalized to the number of neutrophils in the bone marrow” value was 47748.80 and 38144.50 and 144567.64 and 78101.02 and 94661.27. Also, in the test on infarcted heart (cardiac 19F MRI after MI, paired with infarct size (correlation), panel A raw data, single animals), the fluorine signal was 1143260.00 and 189700.00 and 404383.00 and 657147.00 and 1197310.00 and 718148.00. The “cardiac 19F signal, Sham” value in the test on infarcted heart (in vivo 19F MRI, Sham (substance not given), single animals) was 79451 and 78829 and 92374 and 48275 and 58581 and 66158. The “cardiac 19F signal after MI” value in the test on infarcted heart (in vivo 19F MRI, mice with MI, panel C raw data, single animals) was 325890 and 570535 and 698329 and 580045 and 224755 and 325233 and 312147 and 344837 and 567674 and 107303 and 326458 and 189700 and 404383 and 657147 and 718148. For the same substance, the “cardiac 19F signal, 1h” value in the test with infarcted heart (time course after MI, 1h, panel B raw data, single animals #1-#6) was 153579.00 and 401063.98 and 321133.97 and 254881.37 and 314977.20 and 322448.95. Besides, the “cardiac 19F signal, 3h” value with infarcted heart (time course after MI, 3h, single animals) is 445129.00 and 539772.19 and 408267.20 and 394516.08 and 617532.55. Also, the “cardiac 19F signal, 6h” value in the test with infarcted heart (time course after MI, 6h, single animals) was 643519.00 and 466668.95 and 433563.34 and 788134.14 and 582620.85. For the same substance, the “cardiac 19F signal, 24h” value with infarcted heart (time course after MI, 24h, single animals) is 1143260.00 and 608391.86 and 841920.06 and 1092840.00 and 1200290.00 and 913025.41. In addition, the “cardiac 19F signal, 48h” value in the test on infarcted heart (time course after MI, 48h, single animals) was 563325.00 and 546371.63 and 835937.39 and 937854.02 and 656412.62. The “cardiac 19F signal, 72h” value in the test with infarcted heart (time course after MI, 72h, single animals) was 589807.00 and 491276.01 and 1221090.00 and 1312800.00 and 804982.61.
